Experimental data as given in patent US20250066286A1, “COMPOSITIONS OF (Z)-ENDOXIFEN AND METHODS OF ENRICHMENT THEREOF” (Atossa Therapeutics, Inc., priority 2022, published 2025).

Experiments:
Type in all cases: physicochemical
[1] = (Z)-Endoxifen recovery by solvent evaporation (XRPD)
Procedure: For the single-solvent evaporations, 10 mg (Z)-endoxifen was dissolved in 1 ml of various solvents in which (Z)-endoxifen has >1000 mg/ml solubility (“very soluble”), 100-1000 mg/ml solubility (“freely soluble”), 33-100 mg/ml solubility (“soluble”), and 10-33 mg/ml solubility (“sparingly soluble”). The solutions were stirred for approximately 60 minutes, then left to evaporate. Following (Z)-endoxifen dissolution to a concentration of 10 mg/ml, all solvents generated clear solutions in which the (Z)-endoxifen completely dissolved. The solutions were evaporated at either room temperature (17-25° C.) or elevated temperature (40-60° C.). All evaporations were performed at 1 atmosphere pressure. The solids obtained from the evaporations were analyzed by XRPD.
For the multi-solvent evaporations, 40 mg (Z)-endoxifen was dissolved in either ethanol/water or THF/acetone mixtures. For the water/ethanol evaporations, 20 ml of 70/30 ethanol/water (v/v) mixtures (achieving concentrations of 2 mg/ml (Z)-endoxifen). The white suspensions were incubated for 3 days at 50° C., yielding clear solutions which were then left to evaporate at elevated temperatures. These analyses were repeated over 4 replicates. For the THF/acetone evaporations, 60 mg (Z)-endoxifen were dissolved in 1.5 ml of a multi-solvent system containing tetrahydrofuran (THF) and acetone in a 40/60 (v/v) mixture. The resultant clear solution was filtered and left to evaporate at room temperature.

[2] = Single solvent slurries of (Z)-endoxifen (XRPD of recovered solid)
Procedure: Further solubility analyses were then performed for solvents which formed suspensions at 50° C. […] The suspensions were recovered and filtered with a nylon filter (0.22 μm) during centrifugation at 4000 rpm for 3 minutes. The solid (Z)-endoxifen collected through filtration was analyzed by XRPD. (Z)-endoxifen remaining in the filtrate was precipitated by addition of antisolvent and also subjected to XRPD analysis.

[3] = Precipitation of (Z)-endoxifen by cooling, gradient precipitation (XRPD); details: GRAD
Procedure: Z)-endoxifen was precipitated by cooling various single and multi- solvent systems. […] The crystallizations utilized cooling rates of 0.5° C./minute or 0.2° C./minute. The samples were then incubated 25° C. with stirring for approximately 15 hours. Some solutions generated precipitate, which was recovered by filtration with a nylon filter (0.22 μm) during centrifugation at 4000 rpm for 3 minutes.
The resulting precipitate was recovered by filtration with a nylon filter (0.22 μm) during centrifugation at 4000 rpm for 3 minutes.
All precipitates were collected for XRPD analysis.

[4] = SLHT-1D-ACN(100 mg/ml) - Form I reference, FIG. 76: acetonitrile, 100 mg/mL, 50° C., 1 d
[5] = SLHT-1D-ACT(100 mg/ml), FIG. 77: acetone, 100 mg/mL, 40° C., 1 d
[6] = SLRT-14D-BME, FIG. 74: butyl methyl ether, 10 mg/mL, RT, 14 d
[7] = 2-propanol 0.5 mL, 20 mg/mL, 75 to 25 °C, ramp −0.2
[8] = acetone 0.5 mL, 20 mg/mL, 25 to −20 °C, ramp not controlled, 3 d
[9] = acetonitrile 0.5 mL, 20 mg/mL, 75 to 25 °C, ramp −0.2
[10] = butyl acetate 0.5 mL, 100 mg/mL, 100 to 25 °C, ramp −0.2
[11] = ethanol 0.5 mL, 20 mg/mL, 75 to 25 °C, ramp −0.2

Output Main phase [phase] ([1]; EVHT: butyl acetate, 10 mg/mL, evaporation at 60° C.): Form I
Output Main phase [phase] ([1]; EVHT: dimethylformamide, 10 mg/mL, evaporation at 60° C.): amorphous
Output Main phase [phase] ([1]; EVHT: ethanol/water 70/30 v/v, 2 mg/mL, evaporation at 60° C. (4 replicates)): amorphous
Output Main phase [phase] ([1]; EVHT: methyl isobutyl ketone, 10 mg/mL, evaporation at 60° C.): amorphous
Output Main phase [phase] ([1]; EVHT: toluene, 10 mg/mL, evaporation at 60° C.): amorphous
Output Main phase [phase] ([1]; EVRT: 2-propanol, 10 mg/mL, evaporation at RT): Form IV
Output Main phase [phase] ([1]; EVRT: acetone, 10 mg/mL, evaporation at RT): Form I
Output Main phase [phase] ([1]; EVRT: acetonitrile, 10 mg/mL, evaporation at RT): Form I
Output Main phase [phase] ([1]; EVRT: ethyl acetate, 10 mg/mL, evaporation at RT): Form I
Output Main phase [phase] ([1]; EVRT: methanol, 10 mg/mL, evaporation at RT): Form I
Output Main phase [phase] ([1]; EVRT: tetrahydrofuran/acetone 40/60 v/v, 40 mg/mL, evaporation at RT): Form I
Output Main phase [phase] ([2]; SLHT-1D-ACN(50 mg/ml), FIG. 80: acetonitrile, 50 mg/mL, 50° C., 1 d): Form I
Output Main phase [phase] ([2]; SLHT-1D-ACN(50 mg/ml)-vial attached, FIG. 92: acetonitrile, 50 mg/mL, 50° C., 1 d): Form I
Output Crystallinity [high/low/SC/oriented] [2, 4]: high
Output Main phase [phase] [2, 4]: Form I
Output Main phase [phase] ([2]; SLHT-1D-ACT(50 mg/ml), FIG. 80: acetone, 50 mg/mL, 40° C., 1 d): Form I
Output Crystallinity [high/low/SC/oriented] [2, 5]: high
Output Main phase [phase] [2, 5]: Form I
Output Main phase [phase] ([2]; SLHT-1D-BME, FIG. 75: butyl methyl ether, 10 mg/mL, 40° C., 1 d): Form I
Output Main phase [phase] ([2]; SLHT-1D-H2O, FIG. 75: water, 10 mg/mL, 50° C., 1 d): Form I
Output Main phase [phase] ([2]; SLHT-1D-HEP, FIG. 75: heptane, 10 mg/mL, 50° C., 1 d): Form I
Output Main phase [phase] ([2]; SLRT-1D-DMF(300 mg/ml), FIG. 81: dimethylformamide, 300 mg/mL, RT, 1 d): Form I
Output Main phase [phase] ([2]; SLRT-1D-ETA(20 mg/ml), FIG. 81: ethyl acetate, 20 mg/mL, RT, 1 d): Form I
Output Main phase [phase] ([2]; SLRT-2D-THF(170 mg/ml), FIG. 81: tetrahydrofuran, 169.7 mg/mL, RT, 2 d): Form I
Output Main phase [phase] ([2]; SLRT-3D-ACT(40 mg/ml), FIG. 78: acetone, 40 mg/mL, RT, 3 d): Form I
Output Main phase [phase] ([2]; SLRT-3D-BME, FIG. 73: butyl methyl ether, 10 mg/mL, RT, 3 d): Form I
Output Main phase [phase] ([2]; SLRT-3D-ETH(40 mg/ml), FIG. 78: ethanol, 40 mg/mL, RT, 3 d): Form I
Output Main phase [phase] ([2]; SLRT-3D-H2O, FIG. 73: water, 10 mg/mL, RT, 3 d): Form I
Output Main phase [phase] ([2]; SLRT-3D-HEP, FIG. 73: heptane, 10 mg/mL, RT, 3 d): Form I
Output Main phase [phase] ([2]; SLRT-6HRS-ACT(40 mg/ml), FIG. 81: acetone, 40 mg/mL, RT, 6 h): Form I
Output Main phase [phase] ([2]; SLRT-14D-2PR(100 mg/ml), FIG. 83: 2-propanol, 100 mg/mL, RT, 14 d): Form I
Output Main phase [phase] ([2]; SLRT-14D-ACN(100 mg/ml), FIG. 83: acetonitrile, 100 mg/mL, RT, 14 d): Form I
Output Main phase [phase] ([2]; SLRT-14D-ACT(40 mg/ml), FIG. 79: acetone, 40 mg/mL, RT, 14 d): Form I
Output Main phase [phase] ([2]; SLRT-14D-ACT(100 mg/ml), FIG. 83: acetone, 100 mg/mL, RT, 14 d): Form I
Output Main phase [phase] ([2]; SLRT-14D-BAC(100 mg/ml), FIG. 82: butyl acetate, 100 mg/mL, RT, 14 d): Form I
Output Crystallinity [high/low/SC/oriented] [2, 6]: low
Output Main phase [phase] [2, 6]: Form I
Output Main phase [phase] ([2]; SLRT-14D-ETA(100 mg/ml), FIG. 82: ethyl acetate, 100 mg/mL, RT, 14 d): Form I
Output Main phase [phase] ([2]; SLRT-14D-ETH(40 mg/ml), FIG. 79: ethanol, 40 mg/mL, RT, 14 d): Form I
Output Main phase [phase] ([2]; SLRT-14D-ETH(100 mg/ml), FIG. 82: ethanol, 100 mg/mL, RT, 14 d): Form I
Output Main phase [phase] ([2]; SLRT-14D-H2O, FIG. 74: water, 10 mg/mL, RT, 14 d): Form I
Output Main phase [phase] ([2]; SLRT-14D-HEP, FIG. 74: heptane, 10 mg/mL, RT, 14 d): Form I
Output Main phase [phase] ([2]; SLRT-14D-MET(50 mg/ml), FIG. 84: methanol, 50 mg/mL, RT, 14 d): Form I
Output Main phase [phase] ([2]; SLRT-14D-MIBK(100 mg/ml), FIG. 82: methyl isobutyl ketone, 100 mg/mL, RT, 14 d): Form I
Output Main phase [phase] ([2]; SLRT-14D-TOL(100 mg/ml), FIG. 83: toluene, 100 mg/mL, RT, 14 d): Form I
Polymorphic form recovered (XRPD) ([2]; all single solvent slurries): Form I
Output Crystallinity [high/low/SC/oriented] [3, 7]: low
Output Main phase [phase] [3, 7]: Form I
Output Main phase [phase] ([3]; 2-propanol 0.5 mL, 100 mg/mL, 75 to 25 °C, ramp −0.2): Form I
Output Crystallinity [high/low/SC/oriented] [3, 8]: low
Output Main phase [phase] [3, 8]: Form I
Output Crystallinity [high/low/SC/oriented] [3, 9]: low
Output Main phase [phase] [3, 9]: Form V
Output Crystallinity [high/low/SC/oriented] [3, 10]: low
Output Main phase [phase] [3, 10]: Form I
Output Crystallinity [high/low/SC/oriented] [3, 11]: low
Output Main phase [phase] [3, 11]: Form I
Output Main phase [phase] ([3]; ethanol 0.5 mL, 100 mg/mL, 75 to 25 °C, ramp −0.2): Form I
Output Main phase [phase] ([3]; ethyl acetate 0.5 mL, 100 mg/mL, 75 to 25 °C, ramp −0.2): Form I
Output Main phase [phase] ([3]; methyl isobutyl ketone 0.5 mL, 100 mg/mL, 25 to −20 °C, ramp not controlled, 1 d): Form X
Compound: CC/C(=C(\c1ccc(O)cc1)c1ccc(OCCNC)cc1)c1ccccc1 [(Z)-endoxifen, (Z)-4-(1-(4-(2-(methylamino)ethoxy)phenyl)-2-phenylbut-1-enyl)phenol]
